Measured values from the supplement of paper PMC11451515.

System: NOMO1
Assay: cell viability relative to DMSO control; higher = less cytotoxic
Settings: 48 h
Outline: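 Leukemia cells (NOMO1 or SEM, 500 cells/well; P12-Ichikawa, 1000 cells/well) were seeded in 5 μl in 1536-well plates after at least four passages of adaptation to each medium. They received library compounds in DMSO by pin dosing, 11 threefold points from 47 μM to 0.79 nM. Luminescence with CellTiter-Glo One was read after 48 h at 37°C. Viability is stated per plate relative to DMSO wells, with cell-free wells as background.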

[1] = HPLM + 10% dialyzed FBS, 0.000781 µM
[2] = HPLM + 10% dialyzed FBS, 0.00234 µM
[3] = HPLM + 10% dialyzed FBS, 0.00702 µM
[4] = HPLM + 10% dialyzed FBS, 0.0211 µM
[5] = HPLM + 10% dialyzed FBS, 0.0632 µM
[6] = HPLM + 10% dialyzed FBS, 0.19 µM
[7] = HPLM + 10% dialyzed FBS, 0.569 µM
[8] = HPLM + 10% dialyzed FBS, 1.71 µM
[9] = HPLM + 10% dialyzed FBS, 5.12 µM
[10] = HPLM + 10% dialyzed FBS, 15.4 µM
[11] = HPLM + 10% dialyzed FBS, 46.1 µM
[12] = RPMI 5 mM glucose + 10% dialyzed FBS, 0.000781 µM
[13] = RPMI 5 mM glucose + 10% dialyzed FBS, 0.00234 µM
[14] = RPMI 5 mM glucose + 10% dialyzed FBS, 0.00702 µM
[15] = RPMI 5 mM glucose + 10% dialyzed FBS, 0.0211 µM
[16] = RPMI 5 mM glucose + 10% dialyzed FBS, 0.0632 µM
[17] = RPMI 5 mM glucose + 10% dialyzed FBS, 0.19 µM
[18] = RPMI 5 mM glucose + 10% dialyzed FBS, 0.569 µM
[19] = RPMI 5 mM glucose + 10% dialyzed FBS, 1.71 µM
[20] = RPMI 5 mM glucose + 10% dialyzed FBS, 5.12 µM
[21] = RPMI 5 mM glucose + 10% dialyzed FBS, 15.4 µM
[22] = RPMI 5 mM glucose + 10% dialyzed FBS, 46.1 µM
[23] = RPMI 5 mM glucose + 10% FBS, 0.000781 µM
[24] = RPMI 5 mM glucose + 10% FBS, 0.00234 µM
[25] = RPMI 5 mM glucose + 10% FBS, 0.00702 µM
[26] = RPMI 5 mM glucose + 10% FBS, 0.0211 µM
[27] = RPMI 5 mM glucose + 10% FBS, 0.0632 µM
[28] = RPMI 5 mM glucose + 10% FBS, 0.19 µM
[29] = RPMI 5 mM glucose + 10% FBS, 0.569 µM
[30] = RPMI 5 mM glucose + 10% FBS, 1.71 µM
[31] = RPMI 5 mM glucose + 10% FBS, 5.12 µM
[32] = RPMI 5 mM glucose + 10% FBS, 15.4 µM
[33] = RPMI 5 mM glucose + 10% FBS, 46.1 µM

Row | SMILES | cell viability [1] [%] | cell viability [2] [%] | cell viability [3] [%] | cell viability [4] [%] | cell viability [5] [%] | cell viability [6] [%] | cell viability [7] [%] | cell viability [8] [%] | cell viability [9] [%] | cell viability [10] [%] | cell viability [11] [%] | cell viability [12] [%] | cell viability [13] [%] | cell viability [14] [%] | cell viability [15] [%] | cell viability [16] [%] | cell viability [17] [%] | cell viability [18] [%] | cell viability [19] [%] | cell viability [20] [%] | cell viability [21] [%] | cell viability [22] [%] | cell viability [23] [%] | cell viability [24] [%] | cell viability [25] [%] | cell viability [26] [%] | cell viability [27] [%] | cell viability [28] [%] | cell viability [29] [%] | cell viability [30] [%] | cell viability [31] [%] | cell viability [32] [%] | cell viability [33] [%]
1 | CCCCCCCCCCCCCCCCCCCCCCO | 108 | 134 | 120 | 140 | 125 | 150 | 133 | 148 | 147 | 147 | 129 | 121 | 107 | 129 | 128 | 132 | 140 | 141 | 140 | 123 | 143 | 145 | – | – | – | – | – | – | – | – | – | – | –
2 | C/C=C(/C)C(=O)O[C@H]1C(C)=C2[C@H]([C@@H]1OC(=O)CCCCCCC)[C@@](C)(OC(C)=O)C[C@H](OC(=O)CCC)[C@@]1(O)[C@H]2OC(=O)[C@@]1(C)O | 100 | 110 | 99.4 | 127 | 56.6 | 12.5 | 7.29 | 4.31 | 2.9 | 2.91 | 5 | 117 | 121 | 129 | 123 | 68 | 13.4 | 8.71 | 10.1 | 7.55 | 5.66 | 5.67 | 112 | 112 | 130 | 119 | 92.7 | 17 | 9.53 | 10.4 | 6.41 | 3.83 | 5.08
3 | OC1=C(O)C2=C(\C=C/C(=O)O2)C=C1 | 102 | 111 | 109 | 116 | 113 | 108 | 103 | 109 | 111 | 115 | 128 | 105 | 102 | 108 | 107 | 99.8 | 127 | 111 | 101 | 107 | 110 | 112 | 99.7 | 105 | 105 | 116 | 106 | 96.5 | 97.3 | 110 | 97.1 | 107 | 99.4
4 | Cc1c(CCOc2ccc(C(=O)O)cc2)c2cc(Cl)ccc2n1C(c1ccccc1)c1ccccc1 | 119 | 121 | 111 | 116 | 109 | 107 | 115 | 123 | 105 | 95 | 73.8 | 111 | 124 | 125 | 120 | 116 | 106 | 98.6 | 115 | 113 | 101 | 97.3 | 108 | 103 | 108 | 108 | 112 | 97.9 | 94.8 | 74.8 | 98.7 | 99.9 | 93.6
